ChEMBL document CHEMBL4828768, “Talaromynoids A-I, Highly Oxygenated Meroterpenoids from the Marine-Derived Fungus Talaromyces purpureogenus SCSIO 41517 and Their Lipid Accumulation Inhibitory Activities” (J Nat Prod, 2021)
Active and inactive are the calls of the source. No cut-off for these calls is given here.

Molecular target: T1, Tyrosine-protein phosphatase non-receptor type 9 (Homo sapiens) (UniProt P43378)
T1 sequence (whole entry): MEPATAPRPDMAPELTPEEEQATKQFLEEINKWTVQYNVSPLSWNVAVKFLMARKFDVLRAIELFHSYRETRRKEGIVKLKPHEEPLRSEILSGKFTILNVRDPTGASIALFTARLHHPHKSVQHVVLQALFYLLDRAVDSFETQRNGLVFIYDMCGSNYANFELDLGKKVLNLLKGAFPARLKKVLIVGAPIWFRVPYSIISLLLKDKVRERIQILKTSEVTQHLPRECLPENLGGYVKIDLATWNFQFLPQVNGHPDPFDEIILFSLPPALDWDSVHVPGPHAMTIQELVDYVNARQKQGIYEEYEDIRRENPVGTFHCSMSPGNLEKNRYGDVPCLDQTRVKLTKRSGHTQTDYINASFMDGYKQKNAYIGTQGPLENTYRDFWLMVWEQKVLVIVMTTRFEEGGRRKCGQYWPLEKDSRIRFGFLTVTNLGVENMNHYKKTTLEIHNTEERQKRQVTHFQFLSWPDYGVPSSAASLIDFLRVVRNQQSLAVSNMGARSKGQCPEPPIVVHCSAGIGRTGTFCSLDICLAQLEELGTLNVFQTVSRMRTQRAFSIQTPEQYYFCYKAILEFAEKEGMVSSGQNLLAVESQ
Test: Inhibition of human recombinant MEG2 expressed in Escherichia coli assessed as inhibition of phosphatase activity by measuring p-nitrophenyl phosphate at 6.7 microg/ml measured after 60 mins
Settings: dose 6.7 µg/ml

SMILES	inhibition [%]
COC(=O)CC1=C(C)[C@H]2C[C@]3(C)C(=O)O[C@@H]4O[C@H](C)[C@]5(O)O[C@@H]([C@H]6O[C@@]16C(C)(C)O)[C@@]2(C)[C@@]51C(=O)O[C@@]413	< 60
COC(=O)CC1=C(C)[C@@H]2C[C@@]3(C)C(=O)O[C@H]4O[C@@H](C)[C@@]5(O)O[C@@H]([C@@H]6O[C@]16C(C)(C)O)[C@]2(C)[C@@]5(C(=O)OC)[C@]43O	< 60
COC(=O)[C@]12[C@@H]3[C@H]4OC(=O)[C@]3(C)CC3=C(C)C5=C(C[C@H](O[C@]1(O)[C@H](C)O4)[C@@]32C)C(C)(C)OC(=O)C5	< 60
COC(=O)[C@]12[C@@H]3[C@@H](O)O[C@@H](C)[C@@]14OC(=O)[C@]3(C)C[C@H]1C(C)=C3CC(=O)OC(C)(C)[C@@]35O[C@H]5[C@H](O4)[C@@]12C	< 60
COC(=O)[C@@]12[C@@]3(C)[C@@H]4C=C5C(=CC(=O)OC5(C)C)[C@@](C)(O)[C@@H]3C[C@@]3(C)C(=O)O[C@@H](O[C@@H](C)[C@@]1(O)O4)[C@@]23O	< 60
COC(=O)[C@]12C(=O)[C@@](C)(O)C(=O)[C@](C)(C[C@H]3C(C)=C4CC(=O)OC(C)(C)C4=CC[C@@]31C)[C@]21CO1	< 60
CC1=C2CC(=O)OC(C)(C)C2=CC[C@@]2(C)[C@H]1C[C@@](C)(C(=O)O)[C@]13COC(=O)[C@@]12C(=O)[C@H](C)O3	< 60
COC(=O)[C@]12C(=O)[C@H](C)O[C@@H]3OC(=O)[C@](C)(C[C@H]4C(C)=C5CC(=O)OC(C)(C)C5=CC[C@@]41C)[C@@H]32 [BERKELEYACETAL A]	< 60
COC(=O)[C@]12[C@@H]3[C@H]4OC(=O)[C@]3(C)C[C@H]3C(C)=C5CC(=O)OC(C)(C)[C@@]56O[C@H]6[C@H](O[C@]1(O)[C@H](C)O4)[C@@]32C	< 60
COC(=O)[C@]12C3=C(C)O[C@@H]4OC(=O)[C@](C)(C[C@H]5C(C)=C6CC(=O)O[C@@]6(C(C)(C)O)[C@@H](C[C@@]51C)O3)[C@@H]42	< 60
COC(=O)CC1=C(C)[C@@H]2C[C@@]3(C)C(=O)O[C@H]4O[C@@H](C)[C@@]5(O)O[C@@H]([C@@H]6O[C@]16C(C)(C)O)[C@]2(C)[C@@]5(C(=O)OC)[C@H]43	< 60
CC1=C2CC(=O)OC(C)(C)[C@]23O[C@@H]3[C@@H]2O[C@@]3(O)[C@@H](C)O[C@H]4OC(=O)[C@]5(C)C[C@H]1[C@]2(C)[C@@]31C(=O)O[C@@]415	< 60
COC(=O)[C@]12C3=C(C)O[C@@H]4OC(=O)[C@](C)(C[C@H]5C(C)=C6CC(=O)O[C@@]6(C(C)(C)O)[C@H](O3)[C@H](O)[C@@]51C)[C@@H]42	< 60

Molecular target: T2, Tyrosine-protein phosphatase non-receptor type 11 (Homo sapiens) (UniProt Q06124)
T2 sequence (whole entry): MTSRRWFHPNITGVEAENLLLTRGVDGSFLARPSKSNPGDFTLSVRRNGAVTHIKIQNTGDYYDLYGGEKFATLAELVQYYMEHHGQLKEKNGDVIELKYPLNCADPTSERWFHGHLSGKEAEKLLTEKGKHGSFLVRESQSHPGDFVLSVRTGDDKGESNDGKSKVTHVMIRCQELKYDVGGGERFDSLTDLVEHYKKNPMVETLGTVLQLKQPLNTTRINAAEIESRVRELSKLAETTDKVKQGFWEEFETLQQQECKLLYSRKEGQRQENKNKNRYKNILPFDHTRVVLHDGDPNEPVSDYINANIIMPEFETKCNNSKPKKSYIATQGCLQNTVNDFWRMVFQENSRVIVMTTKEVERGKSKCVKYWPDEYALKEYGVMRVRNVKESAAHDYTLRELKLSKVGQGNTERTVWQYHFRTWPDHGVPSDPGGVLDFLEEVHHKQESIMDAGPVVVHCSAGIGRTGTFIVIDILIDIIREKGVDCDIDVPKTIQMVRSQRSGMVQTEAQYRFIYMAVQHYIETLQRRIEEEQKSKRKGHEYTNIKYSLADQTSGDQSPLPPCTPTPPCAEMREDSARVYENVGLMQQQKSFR
Test: Inhibition of human recombinant SHP2 expressed in Escherichia coli assessed as inhibition of phosphatase activity by measuring p-nitrophenyl phosphate at 6.7 microg/ml measured after 60 mins
Settings: dose 6.7 µg/ml

SMILES	inhibition [%]
COC(=O)CC1=C(C)[C@H]2C[C@]3(C)C(=O)O[C@@H]4O[C@H](C)[C@]5(O)O[C@@H]([C@H]6O[C@@]16C(C)(C)O)[C@@]2(C)[C@@]51C(=O)O[C@@]413	< 60
COC(=O)CC1=C(C)[C@@H]2C[C@@]3(C)C(=O)O[C@H]4O[C@@H](C)[C@@]5(O)O[C@@H]([C@@H]6O[C@]16C(C)(C)O)[C@]2(C)[C@@]5(C(=O)OC)[C@]43O	< 60
COC(=O)[C@]12[C@@H]3[C@H]4OC(=O)[C@]3(C)CC3=C(C)C5=C(C[C@H](O[C@]1(O)[C@H](C)O4)[C@@]32C)C(C)(C)OC(=O)C5	< 60
COC(=O)[C@]12[C@@H]3[C@@H](O)O[C@@H](C)[C@@]14OC(=O)[C@]3(C)C[C@H]1C(C)=C3CC(=O)OC(C)(C)[C@@]35O[C@H]5[C@H](O4)[C@@]12C	< 60
COC(=O)[C@@]12[C@@]3(C)[C@@H]4C=C5C(=CC(=O)OC5(C)C)[C@@](C)(O)[C@@H]3C[C@@]3(C)C(=O)O[C@@H](O[C@@H](C)[C@@]1(O)O4)[C@@]23O	< 60
COC(=O)[C@]12C(=O)[C@@](C)(O)C(=O)[C@](C)(C[C@H]3C(C)=C4CC(=O)OC(C)(C)C4=CC[C@@]31C)[C@]21CO1	< 60
CC1=C2CC(=O)OC(C)(C)C2=CC[C@@]2(C)[C@H]1C[C@@](C)(C(=O)O)[C@]13COC(=O)[C@@]12C(=O)[C@H](C)O3	< 60
COC(=O)[C@]12C(=O)[C@H](C)O[C@@H]3OC(=O)[C@](C)(C[C@H]4C(C)=C5CC(=O)OC(C)(C)C5=CC[C@@]41C)[C@@H]32 [BERKELEYACETAL A]	< 60
COC(=O)[C@]12[C@@H]3[C@H]4OC(=O)[C@]3(C)C[C@H]3C(C)=C5CC(=O)OC(C)(C)[C@@]56O[C@H]6[C@H](O[C@]1(O)[C@H](C)O4)[C@@]32C	< 60
COC(=O)[C@]12C3=C(C)O[C@@H]4OC(=O)[C@](C)(C[C@H]5C(C)=C6CC(=O)O[C@@]6(C(C)(C)O)[C@@H](C[C@@]51C)O3)[C@@H]42	< 60
COC(=O)CC1=C(C)[C@@H]2C[C@@]3(C)C(=O)O[C@H]4O[C@@H](C)[C@@]5(O)O[C@@H]([C@@H]6O[C@]16C(C)(C)O)[C@]2(C)[C@@]5(C(=O)OC)[C@H]43	< 60
CC1=C2CC(=O)OC(C)(C)[C@]23O[C@@H]3[C@@H]2O[C@@]3(O)[C@@H](C)O[C@H]4OC(=O)[C@]5(C)C[C@H]1[C@]2(C)[C@@]31C(=O)O[C@@]415	< 60
COC(=O)[C@]12C3=C(C)O[C@@H]4OC(=O)[C@](C)(C[C@H]5C(C)=C6CC(=O)O[C@@]6(C(C)(C)O)[C@H](O3)[C@H](O)[C@@]51C)[C@@H]42	< 60

Molecular target: T3, M-phase inducer phosphatase 2 (Homo sapiens, UniProt P30305)
T3 sequence (P30305 whole entry): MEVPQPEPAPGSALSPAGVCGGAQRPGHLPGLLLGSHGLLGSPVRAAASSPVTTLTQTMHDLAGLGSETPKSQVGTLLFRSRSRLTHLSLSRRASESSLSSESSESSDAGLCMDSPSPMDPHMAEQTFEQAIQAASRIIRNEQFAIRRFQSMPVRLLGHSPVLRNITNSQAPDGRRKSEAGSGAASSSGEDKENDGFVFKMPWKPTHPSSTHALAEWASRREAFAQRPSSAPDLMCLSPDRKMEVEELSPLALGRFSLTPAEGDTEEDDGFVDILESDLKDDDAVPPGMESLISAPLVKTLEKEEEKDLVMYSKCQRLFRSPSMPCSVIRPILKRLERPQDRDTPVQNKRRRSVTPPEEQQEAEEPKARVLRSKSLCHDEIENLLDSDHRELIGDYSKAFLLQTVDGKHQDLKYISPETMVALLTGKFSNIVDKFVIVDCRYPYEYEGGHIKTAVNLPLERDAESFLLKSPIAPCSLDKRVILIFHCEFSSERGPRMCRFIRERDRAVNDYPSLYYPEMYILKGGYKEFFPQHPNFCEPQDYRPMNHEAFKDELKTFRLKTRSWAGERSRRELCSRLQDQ
Test: Inhibition of human recombinant CDC25B expressed in Escherichia coli assessed as inhibition of phosphatase activity by measuring p-nitrophenyl phosphate measured after 60 mins
Settings: not given

SMILES	IC50 [µM]
COC(=O)[C@@]12[C@@]3(C)[C@@H]4C=C5C(=CC(=O)OC5(C)C)[C@@](C)(O)[C@@H]3C[C@@]3(C)C(=O)O[C@@H](O[C@@H](C)[C@@]1(O)O4)[C@@]23O	13

Test system: not listed separately
Test: (§1) Reduction in intracellular triglyceride accumulation in mouse 3T3-L1 cells at 10 uM measured after 3 days
Type: functional
Parameters: scale not given: the % may be the effect or the level left
Settings: time 3 day

SMILES	Activity [%]
CC1=C2CC(=O)OC(C)(C)C2=CC[C@@]2(C)[C@H]1C[C@@](C)(C(=O)O)[C@]13COC(=O)[C@@]12C(=O)[C@H](C)O3	<60
COC(=O)[C@]12C(=O)[C@H](C)O[C@@H]3OC(=O)[C@](C)(C[C@H]4C(C)=C5CC(=O)OC(C)(C)C5=CC[C@@]41C)[C@@H]32 [BERKELEYACETAL A]	<60

Test system: 3T3-L1
Test: as §1
Type: functional
Settings: time 3.0 day

SMILES	Activity
COC(=O)CC1=C(C)[C@H]2C[C@]3(C)C(=O)O[C@@H]4O[C@H](C)[C@]5(O)O[C@@H]([C@H]6O[C@@]16C(C)(C)O)[C@@]2(C)[C@@]51C(=O)O[C@@]413	Active
COC(=O)[C@]12[C@@H]3[C@@H](O)O[C@@H](C)[C@@]14OC(=O)[C@]3(C)C[C@H]1C(C)=C3CC(=O)OC(C)(C)[C@@]35O[C@H]5[C@H](O4)[C@@]12C	Active
COC(=O)[C@]12C(=O)[C@@](C)(O)C(=O)[C@](C)(C[C@H]3C(C)=C4CC(=O)OC(C)(C)C4=CC[C@@]31C)[C@]21CO1	Active
CC1=C2CC(=O)OC(C)(C)[C@]23O[C@@H]3[C@@H]2O[C@@]3(O)[C@@H](C)O[C@H]4OC(=O)[C@]5(C)C[C@H]1[C@]2(C)[C@@]31C(=O)O[C@@]415	Active

Test system: not listed separately
Test: Reduction in intracellular triglyceride accumulation in mouse 3T3-L1 cells measured after 3 days
Type: functional, cell-based
Settings: 3T3-L1, 72 h

SMILES	IC50 [µM]
COC(=O)CC1=C(C)[C@H]2C[C@]3(C)C(=O)O[C@@H]4O[C@H](C)[C@]5(O)O[C@@H]([C@H]6O[C@@]16C(C)(C)O)[C@@]2(C)[C@@]51C(=O)O[C@@]413	29
COC(=O)[C@]12[C@@H]3[C@@H](O)O[C@@H](C)[C@@]14OC(=O)[C@]3(C)C[C@H]1C(C)=C3CC(=O)OC(C)(C)[C@@]35O[C@H]5[C@H](O4)[C@@]12C	21
COC(=O)[C@]12C(=O)[C@@](C)(O)C(=O)[C@](C)(C[C@H]3C(C)=C4CC(=O)OC(C)(C)C4=CC[C@@]31C)[C@]21CO1	43
CC1=C2CC(=O)OC(C)(C)[C@]23O[C@@H]3[C@@H]2O[C@@]3(O)[C@@H](C)O[C@H]4OC(=O)[C@]5(C)C[C@H]1[C@]2(C)[C@@]31C(=O)O[C@@]415	37
